pKd: −log10 of the molar value.
Columns and labels:
[1] = cited from earlier work
HDAC3 = target: T1, HDAC3 (Homo sapiens, UniProt O15379); assay: Chemoproteomic competition pulldown assay; format: binding; details: iL, MV4-11 lysate
T1 construct: endogenous in cells; host or cells: MV4-11 lysate
Description: To identify proteins directly bound by lipoic acid, we employed a chemoproteomic competition assay. Briefly, (R/S)-LA was immobilized on sepharose beads via an amidation reaction to form an affinity matrix (abbreviated as iL; Fig. 1a). This affinity matrix can be incubated with cell lysate to pull down potential LA or LM target proteins and identify these targets via bottom-up proteomics. In a competition assay, free LA or LM were incubated with lysate at different concentrations before pulling down and quantifying target proteins. […] (Fig. 1b, see “Methods” for details). […] The lysate buffer used in this assay contains 1 mM DTT to mimic the intracellular reductive milieu and to reduce lipoic acid and LM. […] Additional competition assays performed in lung adenocarcinoma cell A549 lysate also identified HDAC1, HDAC2, and HDAC6 as targets (Supplementary Fig. 1b). Amongst the three cell lines tested, HDACs were the only confidently identified targets across the 1500–3000 proteins quantified in these assays. […] We validated the results by analogous pulldown competition assays using two other affinity matrices prepared via the immobilization of either the HDAC inhibitor Quisinostat (iQ) and an analog of the class IIa HDAC inhibitor Bürli’s 31[14] (iC)[12]. We have previously shown that these affinity matrices specifically bind to the active sites of HDACs and have used them for HDACi selectivity profiling. Indeed, binding of (R/S)-LA and (R/S)-LM to HDAC1, HDAC2, HDAC3, HDAC6, and, to a lesser extent, HDAC8 was confirmed in these assays (Supplementary Fig. 1c, d). No binding to class IIa HDACs or the recently discovered common HDAC inhibitor off-target MBLAC2 was observed (Supplementary Fig. 1e)[12]. […] This observation might reflect electrostatic repulsion between the HDAC10 active site gate-keeper glutamic acid residues[15],[16] and the terminal carboxylic acid of LA.
To assess the degree of protein depletion from lysates by the affinity matrix, a second pulldown (PDPD) with fresh beads was performed using the unbound protein fraction from the vehicle control flow through. The beads were washed (1 × 1 mL of lysis buffer without inhibitors and only 0.4% Igepal, 2 × 2 mL of lysis buffer without inhibitors and only 0.2% Igepal), and captured proteins were denatured with 8 M urea buffer, alkylated with 55 mM chloroacetamide and digested with Trypsin according to standard procedures. The resulting peptides were desalted on a C18 filter plate (Sep-Pak® tC18 µElution Plate, Waters), vacuum dried, and stored at −20 °C until LC–MSMS measurement.
For the competition assays, relative binding was calculated based on the protein intensity ratio to the DMSO control for every single inhibitor concentration. EC50 values were derived from a four-parameter log-logistic regression with variable slope (constrain: bottom > 0). The obtained EC50 values were multiplied with a protein-dependent correction factor (cf), resulting in the apparent Kd value (Kd^app). The correction factor is determined by calculating the ratio of the protein intensity of two consecutive pulldowns of the vehicle control sample[13]. Targets of the inhibitors were annotated manually according to published procedures[12],[46],[47]. […] Additionally, the number of unique peptides and MSMS counts per condition were taken into account. Positive target binding across several independent experiments performed with different cell lysates further substantiated our confidence for a true positive drug-target binding event.

T1 sequence (O15379 whole entry): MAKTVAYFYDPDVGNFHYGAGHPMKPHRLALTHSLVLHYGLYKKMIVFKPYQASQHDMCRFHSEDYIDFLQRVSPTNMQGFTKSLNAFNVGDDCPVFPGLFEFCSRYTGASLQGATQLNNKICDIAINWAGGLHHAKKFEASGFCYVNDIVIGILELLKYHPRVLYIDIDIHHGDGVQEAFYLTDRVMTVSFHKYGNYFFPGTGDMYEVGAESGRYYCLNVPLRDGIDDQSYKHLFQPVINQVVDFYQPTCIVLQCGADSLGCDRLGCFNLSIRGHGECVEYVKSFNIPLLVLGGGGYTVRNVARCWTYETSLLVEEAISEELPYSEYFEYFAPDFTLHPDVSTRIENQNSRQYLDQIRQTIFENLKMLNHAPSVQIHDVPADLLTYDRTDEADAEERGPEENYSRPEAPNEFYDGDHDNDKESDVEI
T1 sequence (O75376 whole entry partner): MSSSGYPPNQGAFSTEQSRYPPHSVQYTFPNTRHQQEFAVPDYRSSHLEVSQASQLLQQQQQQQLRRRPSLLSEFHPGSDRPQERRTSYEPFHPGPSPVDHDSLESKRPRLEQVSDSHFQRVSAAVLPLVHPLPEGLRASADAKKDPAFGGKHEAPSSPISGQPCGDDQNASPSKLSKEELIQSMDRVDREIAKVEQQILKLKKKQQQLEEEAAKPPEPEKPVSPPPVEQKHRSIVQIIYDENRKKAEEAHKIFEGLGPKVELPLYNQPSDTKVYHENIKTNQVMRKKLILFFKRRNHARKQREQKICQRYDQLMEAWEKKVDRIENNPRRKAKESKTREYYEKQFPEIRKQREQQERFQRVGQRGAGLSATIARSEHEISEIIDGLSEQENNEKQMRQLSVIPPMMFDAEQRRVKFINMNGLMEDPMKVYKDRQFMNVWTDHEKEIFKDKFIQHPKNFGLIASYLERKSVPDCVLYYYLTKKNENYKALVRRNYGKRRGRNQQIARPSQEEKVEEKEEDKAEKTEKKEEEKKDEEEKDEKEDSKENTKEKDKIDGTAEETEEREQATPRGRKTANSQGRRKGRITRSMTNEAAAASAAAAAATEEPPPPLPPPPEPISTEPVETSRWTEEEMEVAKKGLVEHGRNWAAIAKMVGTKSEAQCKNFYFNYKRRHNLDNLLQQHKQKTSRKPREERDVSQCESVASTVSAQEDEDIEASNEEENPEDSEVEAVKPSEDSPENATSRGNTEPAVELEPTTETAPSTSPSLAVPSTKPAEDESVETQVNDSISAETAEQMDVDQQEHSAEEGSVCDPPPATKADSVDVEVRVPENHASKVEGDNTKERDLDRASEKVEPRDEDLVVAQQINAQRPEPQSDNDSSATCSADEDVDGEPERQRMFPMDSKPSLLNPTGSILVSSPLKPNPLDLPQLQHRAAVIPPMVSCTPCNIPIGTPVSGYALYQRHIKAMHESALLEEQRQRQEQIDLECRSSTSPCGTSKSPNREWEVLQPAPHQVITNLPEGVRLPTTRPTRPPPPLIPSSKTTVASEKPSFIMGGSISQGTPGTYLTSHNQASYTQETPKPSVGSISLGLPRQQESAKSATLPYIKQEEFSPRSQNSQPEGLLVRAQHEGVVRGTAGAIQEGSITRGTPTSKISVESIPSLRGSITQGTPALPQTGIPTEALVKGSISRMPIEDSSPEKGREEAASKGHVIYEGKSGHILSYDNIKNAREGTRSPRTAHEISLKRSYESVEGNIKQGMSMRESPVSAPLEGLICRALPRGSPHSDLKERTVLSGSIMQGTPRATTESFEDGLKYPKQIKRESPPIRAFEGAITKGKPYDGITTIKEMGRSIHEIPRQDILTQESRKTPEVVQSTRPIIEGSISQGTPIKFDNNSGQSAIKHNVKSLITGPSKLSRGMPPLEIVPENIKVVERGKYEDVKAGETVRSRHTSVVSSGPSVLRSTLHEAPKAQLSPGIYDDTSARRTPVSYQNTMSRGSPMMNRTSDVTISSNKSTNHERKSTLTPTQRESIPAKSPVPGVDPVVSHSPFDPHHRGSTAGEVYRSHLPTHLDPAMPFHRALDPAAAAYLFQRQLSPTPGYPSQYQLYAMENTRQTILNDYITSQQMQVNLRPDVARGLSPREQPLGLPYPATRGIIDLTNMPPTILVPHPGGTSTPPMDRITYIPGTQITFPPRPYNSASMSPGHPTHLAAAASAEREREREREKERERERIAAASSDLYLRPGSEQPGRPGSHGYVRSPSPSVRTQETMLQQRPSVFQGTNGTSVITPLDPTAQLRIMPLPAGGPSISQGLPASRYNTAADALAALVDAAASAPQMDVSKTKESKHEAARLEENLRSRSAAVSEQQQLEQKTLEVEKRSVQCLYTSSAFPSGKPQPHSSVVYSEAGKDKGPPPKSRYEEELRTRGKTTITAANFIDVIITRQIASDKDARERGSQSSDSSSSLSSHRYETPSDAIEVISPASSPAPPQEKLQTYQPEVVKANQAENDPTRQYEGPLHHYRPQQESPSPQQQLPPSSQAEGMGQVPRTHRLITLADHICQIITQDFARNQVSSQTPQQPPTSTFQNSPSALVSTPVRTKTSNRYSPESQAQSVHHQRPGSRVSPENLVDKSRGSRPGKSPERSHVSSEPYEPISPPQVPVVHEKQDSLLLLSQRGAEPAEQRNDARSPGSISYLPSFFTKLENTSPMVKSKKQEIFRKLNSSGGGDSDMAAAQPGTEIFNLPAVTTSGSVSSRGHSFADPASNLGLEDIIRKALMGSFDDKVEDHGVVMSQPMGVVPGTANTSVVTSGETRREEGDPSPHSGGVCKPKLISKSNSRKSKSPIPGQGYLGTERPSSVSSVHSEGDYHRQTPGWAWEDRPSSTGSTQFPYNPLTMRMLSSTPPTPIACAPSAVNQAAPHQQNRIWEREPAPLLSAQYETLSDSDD

| relative binding vs DMSO (HDAC3; log10 M -3.52288) | relative binding vs DMSO (HDAC3; log10 M -4) | relative binding vs DMSO (HDAC3; log10 M -4.52288) | relative binding vs DMSO (HDAC3; log10 M -5) | relative binding vs DMSO (HDAC3; log10 M -5.52288) | relative binding vs DMSO (HDAC3; log10 M -6) | relative binding vs DMSO (HDAC3; log10 M -6.52288) | relative binding vs DMSO (HDAC3; log10 M -7) | pKd (HDAC3; read-out: Kd app) | SMILES | peak plasma concentrations ([1]; clinically relevant doses 600 to 2400 mg/day, orally and intravenously) | peak plasma concentration ([1]; in humans) |
| --- | --- | --- | --- | --- | --- | --- | --- | --- | --- | --- | --- |
|  |  |  |  |  |  |  |  |  | O=C(O)CCCCC1CCSS1 (racemic) [(R/S)-LA, (R/S)-lipoic acid] | 100 to 500 µM | about 0.5 mM |
| 0.06787 | 0.1873 | 0.229 | 0.6794 | 1.111 | 0.7918 | 1.34 | 0.7531 | 4.89 | NC(=O)CCCCC1CCSS1 (racemic) [(R/S)-LM, (R/S)-lipoamide] |  |  |

— publication PMC10272112 (Nature Communications, 2023)
